{"source": "patent US20080025916A1", "about": "“Tailored Treatment Suitable for Different Forms of Mastocytosis” (AB Science, priority 2003, published 2008)", "key": {"[1]": {"molecular_target": "816 mutated c-kit (D816V mutant form of the human c-kit receptor) (Homo sapiens, UniProt P10721, D816V)", "sequence (P10721 26-976 D816V)": "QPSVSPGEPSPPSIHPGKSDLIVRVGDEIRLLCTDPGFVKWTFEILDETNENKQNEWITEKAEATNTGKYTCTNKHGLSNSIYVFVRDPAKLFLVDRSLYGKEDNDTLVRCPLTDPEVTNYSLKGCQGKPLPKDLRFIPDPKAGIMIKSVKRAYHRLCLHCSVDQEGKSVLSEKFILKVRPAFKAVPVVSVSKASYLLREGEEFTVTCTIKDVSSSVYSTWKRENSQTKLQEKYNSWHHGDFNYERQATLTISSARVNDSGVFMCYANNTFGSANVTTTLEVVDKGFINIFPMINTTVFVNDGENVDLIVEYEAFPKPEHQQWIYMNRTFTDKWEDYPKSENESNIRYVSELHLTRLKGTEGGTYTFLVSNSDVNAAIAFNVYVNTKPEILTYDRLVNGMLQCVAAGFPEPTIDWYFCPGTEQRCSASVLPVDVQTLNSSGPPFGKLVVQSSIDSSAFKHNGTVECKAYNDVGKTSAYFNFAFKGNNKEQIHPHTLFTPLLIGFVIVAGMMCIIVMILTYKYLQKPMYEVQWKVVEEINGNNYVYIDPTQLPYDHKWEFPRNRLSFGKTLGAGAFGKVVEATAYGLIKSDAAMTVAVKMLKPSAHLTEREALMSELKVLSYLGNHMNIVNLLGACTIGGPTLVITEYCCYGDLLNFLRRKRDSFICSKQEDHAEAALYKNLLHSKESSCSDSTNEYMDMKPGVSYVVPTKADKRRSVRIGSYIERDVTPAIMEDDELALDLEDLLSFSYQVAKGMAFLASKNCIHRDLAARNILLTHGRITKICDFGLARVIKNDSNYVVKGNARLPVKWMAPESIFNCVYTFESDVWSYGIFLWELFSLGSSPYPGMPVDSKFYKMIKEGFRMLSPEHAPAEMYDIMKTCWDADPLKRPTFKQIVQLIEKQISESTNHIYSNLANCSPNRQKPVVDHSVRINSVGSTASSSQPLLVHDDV", "method": "(§1) At 24, 48 and 72 hours, the number of viable cells was determined in each condition using the trypan blue exclusion assay."}, "[2]": {"tested_on": "mouse bone marrow-derived mast cell line (BMMC) expressing the mutant D816V form of the human c-kit", "assay": "proliferation of BMMC line, viable cell count by trypan blue exclusion assay", "type": "cell-based", "conditions": "24, 48 and 72 hours", "method": "as §1"}, "[3]": {"molecular_target": "c-kit wild (Homo sapiens, UniProt P10721)", "sequence (P10721 26-976)": "as the sequence (P10721 26-976 D816V) above, with V791D counted along it", "conditions": "shown in WO 02/080925; cited from earlier work"}, "[4]": {"tested_on": "juxtamembrane mutated c-kit", "conditions": "shown in WO 02/080925; cited from earlier work"}, "[5]": {"tested_on": "lymphoid BaF/3 murine cell line transfected with the D816V mutant form of the human c-kit", "assay": "proliferation of BaF/3 cells transfected with D816V c-kit", "type": "cell-based", "conditions": "not affected up to 1 microM, inhibited above 1 microM as in BMMC", "method": "as §1"}}}
{"smiles": "Cc1ccc(NC(=O)c2ccc(CN3CCN(C)CC3)cc2)cc1Nc1nccc(-c2cccnc2)n1", "note": "[STI571]", "values": [{"measurement": "resistance of the D816V mutant form of the human c-kit receptor", "setting": "[1]; pharmacological doses", "value": "resistant"}, {"measurement": "activity on 816 mutated c-kit", "setting": "[1]; see FIGS. 1 and 2", "value": "not active"}, {"measurement": "proliferation of the BMMC line with the mutant D816V form of the human c-kit", "setting": "[2]; STI-571 under or equal to 1 microM, FIG. 2", "value": "not affected"}, {"measurement": "proliferation of the BMMC line with the mutant D816V form of the human c-kit", "setting": "[2]; concentrations of STI-571 above 1 microM (up to 10^-5 M)", "value": "dose- and time-dependently inhibited"}, {"measurement": "activity on c-kit wild", "setting": "[3]", "value": "active"}, {"measurement": "activity on the juxtamembrane mutated c-kit", "setting": "[4]", "value": "very active"}, {"measurement": "proliferation of BaF/3 cells with D816V human c-kit (same result as BMMC)", "setting": "[5]", "value": "also observed"}]}
